In PubChem BioAssay (NCI):
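Assay format: 96-well plates, 48-hour exposure. TGI: concentration producing complete growth inhibition.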

What was measured:
Test in all cases: growth of human tumour cells (NCI), 48 h
NCI-H460 lung = system: NCI-H460 lung
UO-31 renal = system: UO-31 renal
ACHN renal = system: ACHN renal
MCF7 breast = system: MCF7 breast
HT29 colon = system: HT29 colon
U251 CNS = system: U251 CNS
OVCAR-4 ovarian = system: OVCAR-4 ovarian
NCI-H23 lung = system: NCI-H23 lung
MDA-N = system: MDA-N
SNB-19 CNS = system: SNB-19 CNS
SF-295 CNS = system: SF-295 CNS
A498 renal = system: A498 renal
RXF 393 renal = system: RXF 393 renal
UACC-62 melanoma = system: UACC-62 melanoma
M14 melanoma = system: M14 melanoma
LOX IMVI melanoma = system: LOX IMVI melanoma
SN12C renal = system: SN12C renal
MDA-MB-435 = system: MDA-MB-435
PC-3 prostate = system: PC-3 prostate
HOP-62 NSCLC = system: HOP-62 NSCLC
A549 NSCLC = system: A549 NSCLC
COLO 205 colon = system: COLO 205 colon
HOP-92 NSCLC = system: HOP-92 NSCLC
HS 578T breast = system: HS 578T breast
OVCAR-3 ovarian = system: OVCAR-3 ovarian
OVCAR-8 ovarian = system: OVCAR-8 ovarian
SF-539 CNS = system: SF-539 CNS
IGROV1 ovarian = system: IGROV1 ovarian
RPMI-8226 leukemia = system: RPMI-8226 leukemia
SF-268 CNS = system: SF-268 CNS
MDA-MB-231 breast = system: MDA-MB-231 breast
HCC-2998 colon = system: HCC-2998 colon
KM12 colon = system: KM12 colon
UACC-257 melanoma = system: UACC-257 melanoma
HL-60(TB) leukemia = system: HL-60(TB) leukemia
SK-MEL-5 melanoma = system: SK-MEL-5 melanoma
SNB-75 CNS = system: SNB-75 CNS
NCI-H522 lung = system: NCI-H522 lung
BT-549 breast = system: BT-549 breast
EKVX NSCLC = system: EKVX NSCLC
CAKI-1 renal = system: CAKI-1 renal
SK-MEL-2 melanoma = system: SK-MEL-2 melanoma
SK-OV-3 ovarian = system: SK-OV-3 ovarian
SK-MEL-28 melanoma = system: SK-MEL-28 melanoma
NCI-H226 lung = system: NCI-H226 lung
NCI/ADR-RES ovarian = system: NCI/ADR-RES ovarian
T-47D breast = system: T-47D breast
DU-145 prostate = system: DU-145 prostate
HCT-116 colon = system: HCT-116 colon
SW-620 colon = system: SW-620 colon
SR leukemia = system: SR leukemia
TK-10 renal = system: TK-10 renal
MOLT-4 leukemia = system: MOLT-4 leukemia
HCT-15 colon = system: HCT-15 colon
OVCAR-5 ovarian = system: OVCAR-5 ovarian
786-0 renal = system: 786-0 renal
K-562 leukemia = system: K-562 leukemia
CCRF-CEM leukemia = system: CCRF-CEM leukemia
MALME-3M melanoma = system: MALME-3M melanoma

SMILES: COC(=O)C1C(C(=O)OC)C1(Br)CBr (configuration not stated)
- TGI (NCI-H460 lung): > 100 µM
- TGI (UO-31 renal): 34.9 µM
- TGI (ACHN renal): 61.8 µM
- TGI (MCF7 breast): > 100 µM
- TGI (HT29 colon): 63.3 µM
- TGI (U251 CNS): > 100 µM
- TGI (OVCAR-4 ovarian): > 100 µM
- TGI (NCI-H23 lung): > 100 µM
- TGI (MDA-N): > 100 µM
- TGI (SNB-19 CNS): > 100 µM
- TGI (SF-295 CNS): > 100 µM
- TGI (A498 renal): > 100 µM
- TGI (RXF 393 renal): 41.6 µM
- TGI (UACC-62 melanoma): > 100 µM
- TGI (M14 melanoma): > 100 µM
- TGI (LOX IMVI melanoma): 51.5 µM
- TGI (SN12C renal): 79.4 µM
- TGI (MDA-MB-435): > 100 µM
- TGI (PC-3 prostate): > 100 µM
- TGI (HOP-62 NSCLC): > 100 µM
- TGI (A549 NSCLC): > 100 µM
- TGI (COLO 205 colon): 41 µM
- TGI (HOP-92 NSCLC): 54.9 µM
- TGI (HS 578T breast): > 100 µM
- TGI (OVCAR-3 ovarian): > 100 µM
- TGI (OVCAR-8 ovarian): > 100 µM
- TGI (SF-539 CNS): > 100 µM
- TGI (IGROV1 ovarian): > 100 µM
- TGI (RPMI-8226 leukemia): 44.3 µM
- TGI (SF-268 CNS): > 100 µM
- TGI (MDA-MB-231 breast): > 100 µM
- TGI (HCC-2998 colon): > 100 µM
- TGI (KM12 colon): > 100 µM
- TGI (UACC-257 melanoma): > 100 µM
- TGI (HL-60(TB) leukemia): > 100 µM
- TGI (SK-MEL-5 melanoma): > 100 µM
- TGI (SNB-75 CNS): > 100 µM
- TGI (NCI-H522 lung): 14.1 µM
- TGI (BT-549 breast): 94.3 µM
- TGI (EKVX NSCLC): 90.3 µM
- TGI (CAKI-1 renal): 31.6 µM
- TGI (SK-MEL-2 melanoma): > 100 µM
- TGI (SK-OV-3 ovarian): > 100 µM
- TGI (SK-MEL-28 melanoma): > 100 µM
- TGI (NCI-H226 lung): > 100 µM
- TGI (NCI/ADR-RES ovarian): > 100 µM
- TGI (T-47D breast): 50.4 µM
- TGI (DU-145 prostate): > 100 µM
- TGI (HCT-116 colon): > 100 µM
- TGI (SW-620 colon): > 100 µM
- TGI (SR leukemia): 46.8 µM
- TGI (TK-10 renal): > 100 µM
- TGI (MOLT-4 leukemia): 21 µM
- TGI (HCT-15 colon): 38.7 µM
- TGI (OVCAR-5 ovarian): > 100 µM
- TGI (786-0 renal): 36.3 µM

SMILES: CCN(CC)CCNc1ccc(C)c2sc3ccccc3c(=O)c12
- TGI (NCI-H460 lung): 5.93 µM
- TGI (UO-31 renal): 3 µM
- TGI (ACHN renal): 11.5 µM
- TGI (MCF7 breast): 5.8 µM
- TGI (HT29 colon): 3.52 µM
- TGI (U251 CNS): 5.65 µM
- TGI (OVCAR-4 ovarian): 18.1 µM
- TGI (NCI-H23 lung): 10.3 µM
- TGI (MDA-N): 4.04 µM
- TGI (SNB-19 CNS): 8.85 µM
- TGI (SF-295 CNS): 5.66 µM
- TGI (A498 renal): 8.05 µM
- TGI (RXF 393 renal): 4.73 µM
- TGI (UACC-62 melanoma): 3.68 µM
- TGI (M14 melanoma): 3.36 µM
- TGI (LOX IMVI melanoma): 3.26 µM
- TGI (SN12C renal): 12.2 µM
- TGI (MDA-MB-435): 4.49 µM
- TGI (K-562 leukemia): 6.08 µM
- TGI (PC-3 prostate): 11.2 µM
- TGI (HOP-62 NSCLC): 24.2 µM
- TGI (A549 NSCLC): 7.13 µM
- TGI (COLO 205 colon): 4.23 µM
- TGI (HS 578T breast): 6.63 µM
- TGI (OVCAR-3 ovarian): 16.8 µM
- TGI (OVCAR-8 ovarian): 13.3 µM
- TGI (CCRF-CEM leukemia): 8.04 µM
- TGI (SF-539 CNS): 8.04 µM
- TGI (IGROV1 ovarian): 13.5 µM
- TGI (RPMI-8226 leukemia): 4.37 µM
- TGI (SF-268 CNS): 20.4 µM
- TGI (MDA-MB-231 breast): 7.96 µM
- TGI (HCC-2998 colon): 14 µM
- TGI (KM12 colon): 10.4 µM
- TGI (UACC-257 melanoma): 3.18 µM
- TGI (HL-60(TB) leukemia): 3.85 µM
- TGI (SK-MEL-5 melanoma): 5.4 µM
- TGI (SNB-75 CNS): 7.68 µM
- TGI (NCI-H522 lung): 5.5 µM
- TGI (BT-549 breast): 19.4 µM
- TGI (EKVX NSCLC): 19.3 µM
- TGI (CAKI-1 renal): 8.02 µM
- TGI (SK-MEL-2 melanoma): 10.3 µM
- TGI (SK-OV-3 ovarian): 18.1 µM
- TGI (SK-MEL-28 melanoma): 3.51 µM
- TGI (NCI-H226 lung): 11.8 µM
- TGI (NCI/ADR-RES ovarian): 16.9 µM
- TGI (T-47D breast): 19.4 µM
- TGI (DU-145 prostate): 18.3 µM
- TGI (HCT-116 colon): 4.31 µM
- TGI (SW-620 colon): 4.35 µM
- TGI (SR leukemia): 6.58 µM
- TGI (MALME-3M melanoma): 9.46 µM
- TGI (TK-10 renal): 11 µM
- TGI (MOLT-4 leukemia): 4.65 µM
- TGI (HCT-15 colon): 8.87 µM
- TGI (OVCAR-5 ovarian): 9.59 µM
- TGI (786-0 renal): 9.32 µM

SMILES: CCC1=NC(C(F)(F)F)(C(F)(F)F)N=C(/N=C(/N)N(C)C(C(C)C)P(=O)(OC(C)C)OC(C)C)O1 (configuration not stated)
- TGI (NCI-H460 lung): > 100 µM
- TGI (UO-31 renal): > 100 µM
- TGI (ACHN renal): > 100 µM
- TGI (MCF7 breast): > 100 µM
- TGI (HT29 colon): > 100 µM
- TGI (U251 CNS): > 100 µM
- TGI (OVCAR-4 ovarian): > 100 µM
- TGI (NCI-H23 lung): > 100 µM
- TGI (MDA-N): > 100 µM
- TGI (SNB-19 CNS): > 100 µM
- TGI (SF-295 CNS): > 100 µM
- TGI (A498 renal): > 100 µM
- TGI (RXF 393 renal): > 100 µM
- TGI (UACC-62 melanoma): > 100 µM
- TGI (M14 melanoma): > 100 µM
- TGI (LOX IMVI melanoma): > 100 µM
- TGI (SN12C renal): > 100 µM
- TGI (MDA-MB-435): > 100 µM
- TGI (K-562 leukemia): > 100 µM
- TGI (PC-3 prostate): > 100 µM
- TGI (HOP-62 NSCLC): > 100 µM
- TGI (A549 NSCLC): > 100 µM
- TGI (COLO 205 colon): > 100 µM
- TGI (HS 578T breast): > 100 µM
- TGI (OVCAR-3 ovarian): > 100 µM
- TGI (OVCAR-8 ovarian): > 100 µM
- TGI (CCRF-CEM leukemia): > 100 µM
- TGI (SF-539 CNS): > 100 µM
- TGI (IGROV1 ovarian): > 100 µM
- TGI (RPMI-8226 leukemia): > 100 µM
- TGI (SF-268 CNS): > 100 µM
- TGI (MDA-MB-231 breast): > 100 µM
- TGI (HCC-2998 colon): > 100 µM
- TGI (KM12 colon): > 100 µM
- TGI (UACC-257 melanoma): > 100 µM
- TGI (HL-60(TB) leukemia): > 100 µM
- TGI (SK-MEL-5 melanoma): > 100 µM
- TGI (SNB-75 CNS): > 100 µM
- TGI (NCI-H522 lung): > 100 µM
- TGI (BT-549 breast): > 100 µM
- TGI (EKVX NSCLC): > 100 µM
- TGI (CAKI-1 renal): > 100 µM
- TGI (SK-MEL-2 melanoma): > 100 µM
- TGI (SK-OV-3 ovarian): > 100 µM
- TGI (SK-MEL-28 melanoma): > 100 µM
- TGI (NCI-H226 lung): > 100 µM
- TGI (NCI/ADR-RES ovarian): > 100 µM
- TGI (T-47D breast): > 100 µM
- TGI (DU-145 prostate): > 100 µM
- TGI (HCT-116 colon): > 100 µM
- TGI (SW-620 colon): > 100 µM
- TGI (SR leukemia): > 100 µM
- TGI (MALME-3M melanoma): > 100 µM
- TGI (TK-10 renal): > 100 µM
- TGI (MOLT-4 leukemia): > 100 µM
- TGI (HCT-15 colon): > 100 µM
- TGI (OVCAR-5 ovarian): > 100 µM
- TGI (786-0 renal): > 100 µM
